Assay results reported in patent US11198761B2, “Biodegradable polyionenes” (AGENCY FOR SCIENCE, TECHNOLOGY AND RESEARCH, priority 2017, dated 2021).

Legend:
[1] = tested on: S. aureus (ATCC No. 6538); assay: MIC, broth microdilution; type: cell-based, Staphylococcus aureus; settings: Gemini-surfactant series S; 18 hours, 37° C.
Experimental: (§1) Bacterial and fungal samples were inoculated according to ATCC's requirement. Briefly, bacteria and fungi were grown in Mueller Hinton Broth (MHB) at 37° C. and room temperature, respectively overnight to allow the microbes to enter the log growth phase with constant 100 rpm shaking. Minimum inhibitory concentration (MIC) of the polymers was determined using the broth microdilution method. 100 μL of 20% v/v water-containing broth with various polymer or Gemini-surfactant concentrations was first added into each well of a 96-well tissue culture plate. The inoculated overnight microbe solution was first diluted to an optical density (O.D.) reading of 0.07 using a microplate reader (TECAN, Switzerland). This will correspond to 3×10^8 CFU/mL based on the McFarland 1 standard solution (CFU=colony forming units). The microbe solution was further diluted 1000 times to achieve a final 3×10^5 CFU/mL. To each well, an equal volume of diluted microbes solution was added and incubated at 37° C. for 18 hours for bacteria samples and at room temperature for 42 hours for fungi samples. There were 6 replicates for each concentration tested, with negative control being microbes added into broth containing 20% v/v deionized water. MIC was taken as the lowest concentration at which there was no observable microbe growth when measured by the microplate reader.

E. coli (ATCC No. 25922) = assay: MIC, broth microdilution; type: cell-based, Escherichia coli; settings: Gemini-surfactant series S; 18 hours, 37° C.
Experimental: as §1

[2] = tested on: P. aeruginosa (ATCC No. 9027); assay: MIC, broth microdilution; type: cell-based, Pseudomonas aeruginosa; settings: Gemini-surfactant series S; 18 hours, 37° C.
Experimental: as §1

[3] = tested on: C. albicans (ATCC No 10231); assay: MIC, broth microdilution; type: cell-based, Candida albicans; settings: Gemini-surfactant series S; 42 hours, room temperature
Experimental: as §1

[4] = tested on: rat red blood cells (rRBCs); assay: Hemolysis assay; type: cell-based; settings: Gemini-surfactant series S; 1 hour, 37° C.
Experimental: Freshly obtained rat red blood cells (rRBC) from the Animal Handling Unit of Biomedical Research Center (Singapore) was used to test the hemolytic activity of the polymers and Gemini-surfactants. The rRBC was diluted to 4% v/v with phosphate-buffered saline (PBS) and added to an equal volume of 0.2% v/v Triton-X solution. A microplate reader was used to measure the optical density (O.D.) reading to make sure the value is between 0.5 and 0.6. An equal volume of different polymer or Gemini-surfactant concentrations was added to the diluted blood and incubated for 1 hour at 37° C. The samples were centrifuged at 1000 g at 4° C. for 5 minutes and 100 μL of the supernatant was collected and transferred to a 96-well tissue culture plate. There were 4 replicates for each concentration. Haemoglobin release was measured using the microplate reader at 576 nm. rRBCs treated with PBS were used as the […] control, while those treated with 0.2% v/v Triton-X was used as the […] control.
Percentage of hemolysis was calculated as follows: Hemolysis (%)═[(O.D.576 nm of the treated sample−O.D.576 nm of negative control)/(O.D.576 nm of positive control−O.D.576 nm of negative control)]×100%
HC50 was taken as the polymer concentration at which the polymer causes 50% hemolysis.

SMILES	MIC SA [1] [ppm]	MIC EC (E. coli (ATCC No. 25922)) [ppm]	MIC PA [2] [ppm]	MIC CA [3] [ppm]	Hemolysis, HC50 [4]
CCCCCCCC[N+](C)(C)Cc1ccc(C(=O)NCCNC(=O)c2ccc(C[N+](C)(C)CCCCCCCC)cc2)cc1.[Cl-].[Cl-] [S-1f]	31	250	>500	125	>2000 ppm
CCCCCCCCCCCC[N+](C)(C)Cc1ccc(C(=O)NCCNC(=O)c2ccc(C[N+](C)(C)CCCCCCCCCCCC)cc2)cc1.[Cl-].[Cl-] [S-1g]	1	2	16	2	125-250 ppm
CCCCCCCCCCCC[N+](C)(C)Cc1ccc(C(=O)NCCNC(=O)c2ccc(C[N+](C)(C)CCCCCCCCCCCC)cc2)cc1.[Cl-].[Cl-] [S-1h]	16	8	31	2	125-250 ppm
CCCCCCCC[N+](C)(C)Cc1ccc(C(=O)NCCCCCCNC(=O)c2ccc(C[N+](C)(C)CCCCCCCC)cc2)cc1.[Cl-].[Cl-] [S-3f]	4	16	500	8	500-1000 ppm
CCCCCCCCCCCC[N+](C)(C)Cc1ccc(C(=O)NCCCCCCNC(=O)c2ccc(C[N+](C)(C)CCCCCCCCCCCC)cc2)cc1.[Cl-].[Cl-] [S-3h]	4	16	16	2	125-250 ppm
CCCCCCCC[N+](C)(C)Cc1ccc(C(=O)NCc2cccc(CNC(=O)c3ccc(C[N+](C)(C)CCCCCCCC)cc3)c2)cc1.[Cl-].[Cl-] [S-4f]	2	8	250	125	250-500 ppm
CCCCCCCCCC[N+](C)(C)Cc1ccc(C(=O)NCc2cccc(CNC(=O)c3ccc(C[N+](C)(C)CCCCCCCCCC)cc3)c2)cc1.[Cl-].[Cl-] [S-4g]	1	1	8	1	63-125 ppm
CCCCCCCCCCCC[N+](C)(C)Cc1ccc(C(=O)NCc2cccc(CNC(=O)c3ccc(C[N+](C)(C)CCCCCCCCCCCC)cc3)c2)cc1.[Cl-].[Cl-] [S-4h]	8	8	31	2	63-125 ppm
C=CC[N+](C)(C)Cc1ccc(C(=O)NCCOCCOCCNC(=O)c2ccc(C[N+](C)(C)CC=C)cc2)cc1.[Cl-].[Cl-] [S-5a]	>500	>500	>500	>500	>2000 ppm
C=C(C)C(=O)OCC[N+](C)(C)Cc1ccc(C(=O)NCCOCCOCCNC(=O)c2ccc(C[N+](C)(C)CCOC(=O)C(=C)C)cc2)cc1.[Cl-].[Cl-] [S-5b]	>500	>500	>500	>500	>2000 ppm
C[N+](C)(Cc1ccc(C(=O)NCCOCCOCCNC(=O)c2ccc(C[N+](C)(C)C3CCCCC3)cc2)cc1)C1CCCCC1.[Cl-].[Cl-] [S-5c]	>500	>500	>500	>500	>2000 ppm
C[N+](C)(Cc1ccccc1)Cc1ccc(C(=O)NCCOCCOCCNC(=O)c2ccc(C[N+](C)(C)Cc3ccccc3)cc2)cc1.[Cl-].[Cl-] [S-5d]	>500	>500	>500	>500	>2000 ppm
CCCC[N+](C)(C)Cc1ccc(C(=O)NCCOCCOCCNC(=O)c2ccc(C[N+](C)(C)CCCC)cc2)cc1.[Cl-].[Cl-] [S-5e]	>500	>500	>500	>500	>2000 ppm
CCCCCCCC[N+](C)(C)Cc1ccc(C(=O)NCCOCCOCCNC(=O)c2ccc(C[N+](C)(C)CCCCCCCC)cc2)cc1.[Cl-].[Cl-] [S-5f]	31	250	>500	125	>2000 ppm
CCCCCCCCCC[N+](C)(C)Cc1ccc(C(=O)NCCOCCOCCNC(=O)c2ccc(C[N+](C)(C)CCCCCCCCCC)cc2)cc1.[Cl-].[Cl-] [S-5g]	2	4	63	2	125-250 ppm
CCCCCCCCCCCC[N+](C)(C)Cc1ccc(C(=O)NCCOCCOCCNC(=O)c2ccc(C[N+](C)(C)CCCCCCCCCCCC)cc2)cc1.[Cl-].[Cl-] [S-5h]	2	4	16	1	16-31 ppm
CCCCCCCC[N+](C)(C)Cc1ccc(C(=O)NCCCOCCOCCOCCCNC(=O)c2ccc(C[N+](C)(C)CCCCCCCC)cc2)cc1.[Cl-].[Cl-] [S-6f]	16	125	>500	16	>2000 ppm
CCCCCCCCCC[N+](C)(C)Cc1ccc(C(=O)NCCCOCCOCCOCCCNC(=O)c2ccc(C[N+](C)(C)CCCCCCCCCC)cc2)cc1.[Cl-].[Cl-] [S-6g]	2	4	63	4	250-500 ppm
CCCCCCCCCCCC[N+](C)(C)Cc1ccc(C(=O)NCCCOCCOCCOCCCNC(=O)c2ccc(C[N+](C)(C)CCCCCCCCCCCC)cc2)cc1.[Cl-].[Cl-] [S-6h]	1	2	8	4	31-63 ppm
CCCCCCCCCC[N+](C)(C)Cc1ccc(C(=O)OCCCOC(=O)c2ccc(C[N+](C)(C)CCCCCCCCCC)cc2)cc1.[Cl-].[Cl-] [S-7g]	1	1	8	1	63-125 ppm
CCCCCCCCCC[N+](C)(C)Cc1ccc(C(=O)OCCCCCCOC(=O)c2ccc(C[N+](C)(C)CCCCCCCCCC)cc2)cc1.[Cl-].[Cl-] [S-9g]	1	2	8	1	125-250 ppm
CCCCCCCCCC[N+](C)(C)Cc1ccc(C(=O)OCCCCCCCCCCCCOC(=O)c2ccc(C[N+](C)(C)CCCCCCCCCC)cc2)cc1.[Cl-].[Cl-] [S-10g]	16	500	500	16	63-125 ppm
CCCCCCCCCC[N+](C)(C)Cc1ccc(C(=O)OCc2ccc(COC(=O)c3ccc(C[N+](C)(C)CCCCCCCCCC)cc3)cc2)cc1.[Cl-].[Cl-] [S-12g]	1	2	8	2	125-250 ppm
CCCCCCCCCC[N+](C)(C)Cc1ccc(C(=O)NCCCCCCOC(=O)c2ccc(C[N+](C)(C)CCCCCCCCCC)cc2)cc1.[Cl-].[Cl-] [S-13g]	1	1	4	1	63-125 ppm
